Source: US20160199298A1, “FOSFESTROL FOR USE IN CURATIVE OR PALLIATIVE TREATMENT OF CANCER IN FEMALE MAMMALS” (CHAMAELEO PHARMA BVBA, priority 2012, published 2016)

How the values were obtained:
MDA-MB-231 Cells = test: in vitro direct cytotoxicity, Cell titer blue viability assay; type: cell-based; conditions: MDA-MB-231 cells (hormone-insensitive), 72 hrs incubation, 1% FBS assay media
Description: (§1) Cells were maintained in vitro in RPMI 1640 containing 10% (v/v) heat inactivated fetal bovine serum (FBS) and 2 mM L-glutamine (growth media) at 37° C. in 5% CO2 and humidified conditions. Cells were harvested, washed, re-suspended into growth medium and counted. The cells were re-suspended into assay media (RPMI 1640+1% (v/v) heat inactivated FBS+ and 2 mM L-glutamine) at 0.5-1×10^5 cells/ml (dependent on cell type), and plated into 96-well assay plates (Corning, black-wall plates) and 50 μl/well aliquots.
(§2) Plates were incubated O/N at 37° C. in 5% humidified CO2 prior to addition of the compounds. […] Fosfestrol was dissolved in sterile water at stock concentration of 60 mM.
(§3) Stocks of all compounds were then serially diluted and final concentration to which cells were exposed were: 300, 150, 75, 37.5, 18.75, 9.4, 4.7, 2.3, 1.2 and 0.6 μM. Positive control was Cisplatin. Cisplatin was diluted in 1% FBS medium to give a stock concentration of 1 mM. Cisplatin stock was serial diluted and final concentration to which cells were exposed was: 100, 50, 25, 12.5, 6.3, […], 1.6, 0.8, 0.4, 0.2 μM.
(§4) Plates were incubated for 72 hrs at 37° C. in 5% humidified CO-2 after addition of the compounds. Viability of the cells was assessed with the Cell titer blue® (Promega) assay. […] Fluorescence was measured with a Flex II station plate reader. […]

MCF7 Cells = test: as above; type: cell-based; conditions: MCF7 cells (hormone-sensitive), 72 hrs incubation, 1% FBS assay media
Description: as §1, §2, §3, §4

MCF-7 cells = conditions: 4 days, 5 μM (2 μg/ml); cited from earlier work
[1] = prostate cancer patients, 5 mg p.o. per day; cited from earlier work
[2] = system: hormone independent mammary carcinomas; conditions: very high doses in vivo; cited from earlier work
[3] = system: postmenopausal women with metastatic breast cancer; conditions: women initially treated; cited from earlier work
[4] = system: postmenopausal breast cancer patients heavily exposed to endocrine therapy; conditions: 15 mg daily p.o., cited from earlier work

| SMILES | reduction in cell growth (MCF-7 cells) | 5-year survival [3] [%] | median survival [3] [years] | also measured |
| --- | --- | --- | --- | --- |
| N.N.[Cl][Pt][Cl] [Cisplatin] | – | – | – | IC50 (MDA-MB-231 Cells): 13 µM; IC50 (MCF7 Cells): 2800 nM |
| CC/C(=C(/CC)c1ccc(OP(=O)(O)O)cc1)c1ccc(O)cc1 [DES monophosphate] | no effect at all | – | – | – |
| CC/C(=C(/CC)c1ccc(O)cc1)c1ccc(O)cc1 [DES, diethylstilbestrol] | no effect at all | 35 | 3.0 | increase in non-cancer related deaths, mostly cardiovascular [1]: 36%; effect on hormone independent mammary carcinomas [2]: no effect; efficacy in highly pretreated patients [4]: effective; patients who stopped therapy because of side effects ([4]; six patients): 19% |
| CC/C(=C(\c1ccccc1)c1ccc(OCCN(C)C)cc1)c1ccccc1 [tamoxifen] | – | 16 | 2.4 | – |
